Measurements from ChEMBL document CHEMBL1781873, “Synthesis and antibacterial property of pyrrolopyrano quinolinones and pyrroloquinolines” (2011).
The source made the active and inactive calls. No cut-off for these calls is given here.

Assays:
Salmonella typhi [1] = assay: Antibacterial activity against Salmonella typhi at 10 ug after 24 hrs by disc diffusion assay; format: functional, Salmonella enterica subsp. enterica serovar Typhi; details: Salmonella enterica, read-out: IZ
Salmonella typhi [2] = assay: Antibacterial activity against Salmonella typhi at 15 ug after 24 hrs by disc diffusion assay; format: functional, Salmonella enterica subsp. enterica serovar Typhi; details: Salmonella enterica, read-out: IZ
Salmonella typhi [3] = assay: Antibacterial activity against Salmonella typhi at 20 ug after 24 hrs by disc diffusion assay; format: functional, Salmonella enterica subsp. enterica serovar Typhi; details: Salmonella enterica, read-out: IZ
Salmonella typhi [4] = assay: Antibacterial activity against Salmonella typhi at 25 ug after 24 hrs by disc diffusion assay; format: functional, Salmonella enterica subsp. enterica serovar Typhi; details: Salmonella enterica, read-out: IZ
Bacillus subtilis [5] = assay: Antibacterial activity against Bacillus subtilis at 10 ug after 24 hrs by disc diffusion assay; format: functional; details: read-out: IZ
Bacillus subtilis [6] = assay: Antibacterial activity against Bacillus subtilis at 15 ug after 24 hrs by disc diffusion assay; format: functional; details: read-out: IZ
Bacillus subtilis [7] = assay: Antibacterial activity against Bacillus subtilis at 20 ug after 24 hrs by disc diffusion assay; format: functional; details: read-out: IZ
Bacillus subtilis [8] = assay: Antibacterial activity against Bacillus subtilis at 25 ug after 24 hrs by disc diffusion assay; format: functional; details: read-out: IZ
Escherichia coli [9] = assay: Inhibition of Escherichia coli DNA gyrase assessed as inhibition of DNA supercoiling activity using pBR322 DNA as substrate at […] after 3 hrs by agarose gel electrophoresis
Escherichia coli [10] = assay: Inhibition of Escherichia coli DNA gyrase -mediated DNA relaxation using pBR322 DNA as substrate at […] after 1 hrs by agarose gel electrophoresis
Escherichia coli [11] = assay: Inhibition of DNA gyrase mRNA expression in Escherichia coli measured up to 24 hrs by RT-PCR; format: functional, organism-based
Staphylococcus aureus [12] = assay: Antibacterial activity against Staphylococcus aureus after 18 to 20 hrs by broth micro dilution assay; format: functional
Escherichia coli [13] = assay: Antibacterial activity against Escherichia coli after 18 to 20 hrs by broth micro dilution assay; format: functional
Klebsiella pneumoniae [14] = assay: Antibacterial activity against Klebsiella pneumoniae after 18 to 20 hrs by broth micro dilution assay; format: functional
Pseudomonas aeruginosa [15] = assay: Antibacterial activity against Pseudomonas aeruginosa after 18 to 20 hrs by broth micro dilution assay; format: functional
Salmonella typhi [16] = assay: Antibacterial activity against Salmonella typhi after 18 to 20 hrs by broth micro dilution assay; format: functional, Salmonella enterica subsp. enterica serovar Typhi; details: Salmonella enterica
Bacillus subtilis [17] = assay: Antibacterial activity against Bacillus subtilis after 18 to 20 hrs by broth micro dilution assay; format: functional
Staphylococcus aureus [18] = assay: Antibacterial activity against Staphylococcus aureus at 5 ug after 24 hrs by disc diffusion assay; format: functional; details: read-out: IZ
Staphylococcus aureus [19] = assay: Antibacterial activity against Staphylococcus aureus at 10 ug after 24 hrs by disc diffusion assay; format: functional; details: read-out: IZ
Staphylococcus aureus [20] = assay: Antibacterial activity against Staphylococcus aureus at 15 ug after 24 hrs by disc diffusion assay; format: functional; details: read-out: IZ
Staphylococcus aureus [21] = assay: Antibacterial activity against Staphylococcus aureus at 20 ug after 24 hrs by disc diffusion assay; format: functional; details: read-out: IZ
Staphylococcus aureus [22] = assay: Antibacterial activity against Staphylococcus aureus at 25 ug after 24 hrs by disc diffusion assay; format: functional; details: read-out: IZ
Escherichia coli [23] = assay: Antibacterial activity against Escherichia coli at 5 ug after 24 hrs by disc diffusion assay; format: functional; details: read-out: IZ
Escherichia coli [24] = assay: Antibacterial activity against Escherichia coli at 10 ug after 24 hrs by disc diffusion assay; format: functional; details: read-out: IZ
Escherichia coli [25] = assay: Antibacterial activity against Escherichia coli at 15 ug after 24 hrs by disc diffusion assay; format: functional; details: read-out: IZ
Escherichia coli [26] = assay: Antibacterial activity against Escherichia coli at 20 ug after 24 hrs by disc diffusion assay; format: functional; details: read-out: IZ
Escherichia coli [27] = assay: Antibacterial activity against Escherichia coli at 25 ug after 24 hrs by disc diffusion assay; format: functional; details: read-out: IZ
Pseudomonas aeruginosa [28] = assay: Antibacterial activity against Pseudomonas aeruginosa at 5 ug after 24 hrs by disc diffusion assay; format: functional; details: read-out: IZ
Pseudomonas aeruginosa [29] = assay: Antibacterial activity against Pseudomonas aeruginosa at 10 ug after 24 hrs by disc diffusion assay; format: functional; details: read-out: IZ
Pseudomonas aeruginosa [30] = assay: Antibacterial activity against Pseudomonas aeruginosa at 15 ug after 24 hrs by disc diffusion assay; format: functional; details: read-out: IZ
Pseudomonas aeruginosa [31] = assay: Antibacterial activity against Pseudomonas aeruginosa at 20 ug after 24 hrs by disc diffusion assay; format: functional; details: read-out: IZ
Pseudomonas aeruginosa [32] = assay: Antibacterial activity against Pseudomonas aeruginosa at 25 ug after 24 hrs by disc diffusion assay; format: functional; details: read-out: IZ
Klebsiella pneumoniae [33] = assay: Antibacterial activity against Klebsiella pneumoniae at 5 ug after 24 hrs by disc diffusion assay; format: functional; details: read-out: IZ
Klebsiella pneumoniae [34] = assay: Antibacterial activity against Klebsiella pneumoniae at 10 ug after 24 hrs by disc diffusion assay; format: functional; details: read-out: IZ
Klebsiella pneumoniae [35] = assay: Antibacterial activity against Klebsiella pneumoniae at 15 ug after 24 hrs by disc diffusion assay; format: functional; details: read-out: IZ
Klebsiella pneumoniae [36] = assay: Antibacterial activity against Klebsiella pneumoniae at 20 ug after 24 hrs by disc diffusion assay; format: functional; details: read-out: IZ
Klebsiella pneumoniae [37] = assay: Antibacterial activity against Klebsiella pneumoniae at 25 ug after 24 hrs by disc diffusion assay; format: functional; details: read-out: IZ
Salmonella typhi [38] = assay: Antibacterial activity against Salmonella typhi at 5 ug after 24 hrs by disc diffusion assay; format: functional, Salmonella enterica subsp. enterica serovar Typhi; details: Salmonella enterica, read-out: IZ

With `CCC1[C@@H]2c3c(c4ccccc4n(C)c3=O)OC(C)(C)[C@H]2CN1OS(=O)(=O)c1ccc(C)cc1` (mixture of isomers) the zone of inhibition at 10 µg/disc (Salmonella typhi [1]) was 16 mm, the zone of inhibition at 15 µg/disc (Salmonella typhi [2]) was 18 mm and the zone of inhibition at 20 µg/disc (Salmonella typhi [3]) was 20 mm. The zone of inhibition at 25 µg/disc (Salmonella typhi [4]) was 22 mm, the zone of inhibition at 10 µg/disc (Bacillus subtilis [5]) was 7 mm and the zone of inhibition at 15 µg/disc (Bacillus subtilis [6]) was 9 mm. For the same molecule, the zone of inhibition at 20 µg/disc (Bacillus subtilis [7]) was 10 mm, the zone of inhibition at 25 µg/disc (Bacillus subtilis [8]) was 12 mm and the “DNA gyrase inhibition (active/inactive)” value (Escherichia coli [9]) was “Active”. For the same molecule, the inhibition (Escherichia coli [10]) was “Active”, the “inhibition of gyrase mRNA expression (active/not active)” value (Escherichia coli [11]) was “Active” and the MIC50 (Staphylococcus aureus [12]) was 0.5 µg/mL. The MIC90 (Staphylococcus aureus [12]) was 0.5 µg/mL, the MIC50 (Escherichia coli [13]) was 0.5 µg/mL and the MIC90 (Escherichia coli [13]) was 1 µg/mL. It also gave an MIC50 (Klebsiella pneumoniae [14]) of 0.5 µg/mL, an MIC90 (Klebsiella pneumoniae [14]) of 0.5 µg/mL and an MIC50 (Pseudomonas aeruginosa [15]) of 0.5 µg/mL. It also gave an MIC90 (Pseudomonas aeruginosa [15]) of 0.5 µg/mL, an MIC50 (Salmonella typhi [16]) of 0.5 µg/mL and an MIC90 (Salmonella typhi [16]) of 0.5 µg/mL. For the same molecule, the MIC50 (Bacillus subtilis [17]) was 0.5 µg/mL, the MIC90 (Bacillus subtilis [17]) was 0.5 µg/mL and the zone of inhibition at 5 µg/disc (Staphylococcus aureus [18]) was 9 mm. The zone of inhibition at 10 µg/disc (Staphylococcus aureus [19]) was 12 mm, the zone of inhibition at 15 µg/disc (Staphylococcus aureus [20]) was 13 mm and the zone of inhibition at 20 µg/disc (Staphylococcus aureus [21]) was 14 mm. It also gave a zone of inhibition at 25 µg/disc (Staphylococcus aureus [22]) of 17 mm, a zone of inhibition at 5 µg/disc (Escherichia coli [23]) of 10 mm and a zone of inhibition at 10 µg/disc (Escherichia coli [24]) of 16 mm. It also gave a zone of inhibition at 15 µg/disc (Escherichia coli [25]) of 18 mm, a zone of inhibition at 20 µg/disc (Escherichia coli [26]) of 20 mm and a zone of inhibition at 25 µg/disc (Escherichia coli [27]) of 23 mm. The zone of inhibition at 5 µg/disc (Pseudomonas aeruginosa [28]) was 10 mm, the zone of inhibition at 10 µg/disc (Pseudomonas aeruginosa [29]) was 16 mm and the zone of inhibition at 15 µg/disc (Pseudomonas aeruginosa [30]) was 17 mm. The zone of inhibition at 20 µg/disc (Pseudomonas aeruginosa [31]) was 22 mm, the zone of inhibition at 25 µg/disc (Pseudomonas aeruginosa [32]) was 24 mm and the zone of inhibition at 5 µg/disc (Klebsiella pneumoniae [33]) was 20 mm. For the same molecule, the zone of inhibition at 10 µg/disc (Klebsiella pneumoniae [34]) was 26 mm, the zone of inhibition at 15 µg/disc (Klebsiella pneumoniae [35]) was 30 mm and the zone of inhibition at 20 µg/disc (Klebsiella pneumoniae [36]) was 34 mm. It also gave a zone of inhibition at 25 µg/disc (Klebsiella pneumoniae [37]) of 36 mm and a zone of inhibition at 5 µg/disc (Salmonella typhi [38]) of 10 mm.
